PubChem BioAssay AID1963977 (Molecular Pharmacology Branch, DTP, NCI, 2024)
“And” between values parts separate entries of the source, which are not always exact repeats. Identical values can stand only once.

Test system: 624824-186-R-J3-PDC multicell spheroids, viability
Assay: Anticancer human tumor 624824-186-R-J3-PDC patient-derived colon adenocarcinoma cell line growth inhibition [PI3K]
Details: for viability, T/C: stronger effect = lower value
Summary of the method: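 Complex 3D spheroids (cancer cells + endothelial HUVEC + mesenchymal stem cells); drug pairs of targeted agent x inavolisib/alpelisib/duvelisib/copanlisib; half-log series from ~Cmax, max 10 microM if Cmax unknown; endpoint viability.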

[1] = curve of first compound, second compound 0.0316 µM
[2] = curve of first compound, second compound 0.1 µM
[3] = curve of first compound, second compound 0.316 µM
[4] = curve of first compound, second compound 1 µM
[5] = curve of first compound, second compound 3.16 µM
[6] = curve of first compound, second compound 10 µM
[7] = second compound 0.0316 µM, first compound 0.0316 µM
[8] = second compound 0.0316 µM, first compound 0.1 µM
[9] = second compound 0.0316 µM, first compound 0.316 µM
[10] = second compound 0.0316 µM, first compound 1 µM
[11] = second compound 0.0316 µM, first compound 3.16 µM
[12] = second compound 0.0316 µM, first compound 10 µM
[13] = second compound 0.1 µM, first compound 0.0316 µM
[14] = second compound 0.1 µM, first compound 0.1 µM
[15] = second compound 0.1 µM, first compound 0.316 µM
[16] = second compound 0.1 µM, first compound 1 µM
[17] = second compound 0.1 µM, first compound 3.16 µM
[18] = second compound 0.1 µM, first compound 10 µM
[19] = second compound 0.316 µM, first compound 0.0316 µM
[20] = second compound 0.316 µM, first compound 0.1 µM
[21] = second compound 0.316 µM, first compound 0.316 µM
[22] = second compound 0.316 µM, first compound 1 µM
[23] = second compound 0.316 µM, first compound 3.16 µM
[24] = second compound 0.316 µM, first compound 10 µM
[25] = second compound 1 µM, first compound 0.0316 µM
[26] = second compound 1 µM, first compound 0.1 µM
[27] = second compound 1 µM, first compound 0.316 µM
[28] = second compound 1 µM, first compound 1 µM
[29] = second compound 1 µM, first compound 3.16 µM
[30] = second compound 1 µM, first compound 10 µM
[31] = second compound 3.16 µM, first compound 0.0316 µM
[32] = second compound 3.16 µM, first compound 0.1 µM
[33] = second compound 3.16 µM, first compound 0.316 µM
[34] = second compound 3.16 µM, first compound 1 µM
[35] = second compound 3.16 µM, first compound 3.16 µM
[36] = second compound 3.16 µM, first compound 10 µM
[37] = second compound 10 µM, first compound 0.0316 µM
[38] = second compound 10 µM, first compound 0.1 µM
[39] = second compound 10 µM, first compound 0.316 µM
[40] = second compound 10 µM, first compound 1 µM
[41] = second compound 10 µM, first compound 3.16 µM
[42] = second compound 10 µM, first compound 10 µM
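Note: spheroids exposed to agents for seven days before luminescence read.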
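Throughout, for viability, T/C: luminescent signal used as a stand-in for spheroid viability; percent viability relative to DMSO vehicle control wells taken as 100%.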

For `Cn1ncc(Cl)c1-c1cc(C(=O)NC(CN)Cc2cccc(F)c2)sc1Cl` (stereo unspecified) + Cc1nc(NC(=O)N2CCCC2C(N)=O)sc1-c1ccnc(C(C)(C)C(F)(F)F)c1, the IC50 [1] was 3.91 µM, the IC50 [2] was 2.84 µM and the IC50 [3] was 2.44 µM. The IC50 [4] was 2.85 µM, the IC50 [5] was 1.77 µM and the IC50 [6] was 0.933 µM. For the same molecule, the viability, T/C [7] was 107%, the viability, T/C [8] was 95.5% and the viability, T/C [9] was 90.2%. For the same molecule, the viability, T/C [10] was 71.7%, the viability, T/C [11] was 52.4% and the viability, T/C [12] was 36.4%. For the same molecule, the viability, T/C [13] was 104%, the viability, T/C [14] was 103% and the viability, T/C [15] was 98.8%. The viability, T/C [16] was 70.9%, the viability, T/C [17] was 49.8% and the viability, T/C [18] was 39%. It also gave a viability, T/C [19] of 108%, a viability, T/C [20] of 104% and a viability, T/C [21] of 89.4%. For the same molecule, the viability, T/C [22] was 61%, the viability, T/C [23] was 50% and the viability, T/C [24] was 36.1%. It also gave a viability, T/C [25] of 102%, a viability, T/C [26] of 87% and a viability, T/C [27] of 82.2%. It also gave a viability, T/C [28] of 70.1%, a viability, T/C [29] of 44.9% and a viability, T/C [30] of 30.4%. For the same molecule, the viability, T/C [31] was 76.7%, the viability, T/C [32] was 89% and the viability, T/C [33] was 81.9%. It also gave a viability, T/C [34] of 56.7%, a viability, T/C [35] of 42.8% and a viability, T/C [36] of 26.7%. The viability, T/C [37] was 74.5%, the viability, T/C [38] was 68% and the viability, T/C [39] was 54.8%. For the same molecule, the viability, T/C [40] was 53.8%, the viability, T/C [41] was 37.6% and the viability, T/C [42] was 21.6%.
In the case of `CC1(C)CCC(CN2CCN(c3ccc(C(=O)NS(=O)(=O)c4ccc(NCC5CCOCC5)c([N+](=O)[O-])c4)c(Oc4cnc5[nH]ccc5c4)c3)CC2)=C(c2ccc(Cl)cc2)C1`, the viability, T/C (compound 0.0316 µM) is reported as 101% [middle of 4 runs], the viability, T/C (compound 0.1 µM) is reported as 99.1% [middle of 4 runs] and the viability, T/C (compound 0.316 µM) is reported as 103% (2×) and 102% and 107%. For the same molecule, the viability, T/C (compound 1 µM) was 105% [middle of 4 runs] and the viability, T/C (compound 3.16 µM) was 110% [middle of 4 runs].
`C#Cc1c(F)ccc2cc(O)cc(-c3ncc4c(N5CC6CCC(C5)N6)nc(OCC56CCCN5CC(F)C6)nc4c3F)c12` (stereo unspecified) + Cc1nc(NC(=O)N2CCCC2C(N)=O)sc1-c1ccnc(C(C)(C)C(F)(F)F)c1 gave an IC50 [1] of over 10 µM, an IC50 [2] of over 10 µM and an IC50 [3] of over 10 µM. For the same molecule, the IC50 [4] was over 10 µM, the IC50 [5] was over 10 µM and the IC50 [6] was over 10 µM. For the same molecule, the viability, T/C [7] was 108%, the viability, T/C [8] was 97% and the viability, T/C [9] was 121%. The viability, T/C [10] was 102%, the viability, T/C [11] was 108% and the viability, T/C [12] was 100%. It also gave a viability, T/C [13] of 111%, a viability, T/C [14] of 98.2% and a viability, T/C [15] of 94.9%. For the same molecule, the viability, T/C [16] was 103%, the viability, T/C [17] was 116% and the viability, T/C [18] was 102%. The viability, T/C [19] was 103%, the viability, T/C [20] was 102% and the viability, T/C [21] was 108%. It also gave a viability, T/C [22] of 101%, a viability, T/C [23] of 112% and a viability, T/C [24] of 108%. It also gave a viability, T/C [25] of 100%, a viability, T/C [26] of 97.4% and a viability, T/C [27] of 114%. The viability, T/C [28] was 100%, the viability, T/C [29] was 112% and the viability, T/C [30] was 107%. For the same molecule, the viability, T/C [31] was 88.9%, the viability, T/C [32] was 88.2% and the viability, T/C [33] was 83%. For the same molecule, the viability, T/C [34] was 85.2%, the viability, T/C [35] was 98.2% and the viability, T/C [36] was 80.4%. For the same molecule, the viability, T/C [37] was 71.4%, the viability, T/C [38] was 70.9% and the viability, T/C [39] was 68.9%. For the same molecule, the viability, T/C [40] was 64.6%, the viability, T/C [41] was 58.8% and the viability, T/C [42] was 54.3%.
In the case of `Cn1nccc1Nc1nccc(-c2ccn(C(CO)c3ccc(Cl)c(F)c3)c(=O)c2)n1` (stereo unspecified), the viability, T/C (compound 0.0316 µM) is reported as 102% [middle of 4 runs], the viability, T/C (compound 0.1 µM) is reported as 95.1% [middle of 4 runs] and the viability, T/C (compound 0.316 µM) is reported as 95.9% [middle of 4 runs]. For the same molecule, the viability, T/C (compound 1 µM) was 80.8% [middle of 4 runs], the viability, T/C (compound 3.16 µM) was 69.3% [middle of 4 runs] and the viability, T/C (compound 10 µM) was 60.9% [middle of 4 runs]. The IC50 (curve of compound) was over 10 µM.
